“And” between values parts separate entries of the source, which are not always exact repeats. Equal values may be shown once. ± gives the expanded uncertainty stated by the source.
Assays:
[1] = xn = mol fraction of the nth substance listed; conditions: 101 kPa, Liquid
[2] = 101.33 kPa, Liquid; for speed of sound: sound analyzer

For `CCOCCOCCO` [3,6-dioxa-1-octanol] + CCCCO, which mass density ([1]; 293.15 K, x1 = 0.0519) is on record?
The mass density was 823.011 ± 0.85 kg/m3.

What about the mass density ([1]; 293.15 K, x1 = 0.1029) of the same compound?
The mass density was 835.52 ± 0.82 kg/m3.

And the mass density ([1]; 293.15 K, x1 = 0.1999)?
Its mass density is 857.73 ± 0.79 kg/m3.

And the mass density ([1]; 293.15 K, x1 = 0.2989)?
Its mass density is 878.535 ± 0.77 kg/m3.

What about the mass density ([1]; 293.15 K, x1 = 0.3513) of the same compound?
The mass density was 888.856 ± 0.76 kg/m3.

What about the mass density ([1]; 293.15 K, x1 = 0.4015) of the same compound?
Its mass density is 898.337 ± 0.76 kg/m3.

And the mass density ([1]; 293.15 K, x1 = 0.4514)?
Its mass density is 907.402 ± 0.77 kg/m3.

What about the mass density ([1]; 293.15 K, x1 = 0.5492) of the same compound?
Its mass density is 924.169 ± 0.78 kg/m3.

And the mass density ([1]; 293.15 K, x1 = 0.5966)?
Its mass density is 931.866 ± 0.8 kg/m3.

What about the mass density ([1]; 293.15 K, x1 = 0.65) of the same compound?
Its mass density is 940.215 ± 0.82 kg/m3.

And the mass density ([1]; 293.15 K, x1 = 0.7002)?
The mass density was 947.765 ± 0.84 kg/m3.

And the mass density ([1]; 293.15 K, x1 = 0.7009)?
Its mass density is 947.885 ± 0.84 kg/m3.

And the mass density ([1]; 293.15 K, x1 = 0.7015)?
The mass density was 947.962 ± 0.84 kg/m3.

What about the mass density ([1]; 293.15 K, x1 = 0.7952) of the same compound?
The mass density was 961.375 ± 0.9 kg/m3.

What about the mass density ([1]; 293.15 K, x1 = 0.8477) of the same compound?
Its mass density is 968.507 ± 0.94 kg/m3.

And the mass density ([1]; 293.15 K, x1 = 0.8489)?
The mass density was 968.677 ± 0.94 kg/m3.

And the mass density ([1]; 293.15 K, x1 = 0.8966)?
The mass density was 974.953 ± 0.98 kg/m3.

And the mass density ([1]; 293.15 K, x1 = 0.95)?
Its mass density is 981.736 ± 1 kg/m3.

What about the mass density ([1]; 298.15 K, x1 = 0.0512) of the same compound?
Its mass density is 818.966 ± 0.86 kg/m3.

And the mass density ([1]; 298.15 K, x1 = 0.1017)?
The mass density was 831.315 ± 0.83 kg/m3.

What about the mass density ([1]; 298.15 K, x1 = 0.1026) of the same compound?
Its mass density is 831.513 ± 0.83 kg/m3.

What about the mass density ([1]; 298.15 K, x1 = 0.151) of the same compound?
The mass density was 842.801 ± 0.81 kg/m3.

And the mass density ([1]; 298.15 K, x1 = 0.1733)?
Its mass density is 847.84 ± 0.81 kg/m3.

What about the mass density ([1]; 298.15 K, x1 = 0.2524) of the same compound?
Its mass density is 864.926 ± 0.79 kg/m3.

What about the mass density ([1]; 298.15 K, x1 = 0.35) of the same compound?
The mass density was 884.465 ± 0.77 kg/m3.

What about the mass density ([1]; 298.15 K, x1 = 0.4025) of the same compound?
The mass density was 894.359 ± 0.77 kg/m3.

And the mass density ([1]; 298.15 K, x1 = 0.449)?
The mass density was 902.763 ± 0.78 kg/m3.

What about the mass density ([1]; 298.15 K, x1 = 0.452) of the same compound?
Its mass density is 903.287 ± 0.78 kg/m3.

What about the mass density ([1]; 298.15 K, x1 = 0.4995) of the same compound?
Its mass density is 911.551 ± 0.78 kg/m3.

What about the mass density ([1]; 298.15 K, x1 = 0.5992) of the same compound?
Its mass density is 927.958 ± 0.81 kg/m3.

What about the mass density ([1]; 298.15 K, x1 = 0.6015) of the same compound?
Its mass density is 928.324 ± 0.81 kg/m3.

And the mass density ([1]; 298.15 K, x1 = 0.6487)?
Its mass density is 935.658 ± 0.83 kg/m3.

What about the mass density ([1]; 298.15 K, x1 = 0.7001) of the same compound?
Its mass density is 943.37 ± 0.85 kg/m3.

What about the mass density ([1]; 298.15 K, x1 = 0.7491) of the same compound?
The mass density was 950.466 ± 0.88 kg/m3 and 950.476 ± 0.88 kg/m3.

And the mass density ([1]; 298.15 K, x1 = 0.8)?
The mass density was 957.603 ± 0.91 kg/m3.

What about the mass density ([1]; 298.15 K, x1 = 0.8086) of the same compound?
Its mass density is 958.782 ± 0.92 kg/m3.

And the mass density ([1]; 298.15 K, x1 = 0.8491)?
The mass density was 964.231 ± 0.95 kg/m3.

And the mass density ([1]; 298.15 K, x1 = 0.8982)?
The mass density was 970.663 ± 0.99 kg/m3.

And the mass density ([1]; 303.15 K, x1 = 0.0507)?
Its mass density is 814.94 ± 0.87 kg/m3.

What about the mass density ([1]; 303.15 K, x1 = 0.1007) of the same compound?
The mass density was 827.098 ± 0.85 kg/m3.

And the mass density ([1]; 303.15 K, x1 = 0.1488)?
Its mass density is 838.296 ± 0.83 kg/m3.

What about the mass density ([1]; 303.15 K, x1 = 0.1539) of the same compound?
The mass density was 839.456 ± 0.83 kg/m3.

What about the mass density ([1]; 303.15 K, x1 = 0.1998) of the same compound?
Its mass density is 849.635 ± 0.81 kg/m3.

And the mass density ([1]; 303.15 K, x1 = 0.2025)?
The mass density was 850.231 ± 0.81 kg/m3.

What about the mass density ([1]; 303.15 K, x1 = 0.2526) of the same compound?
Its mass density is 860.864 ± 0.8 kg/m3.

And the mass density ([1]; 303.15 K, x1 = 0.3035)?
The mass density was 871.188 ± 0.79 kg/m3.

What about the mass density ([1]; 303.15 K, x1 = 0.3042) of the same compound?
The mass density was 871.343 ± 0.79 kg/m3.

What about the mass density ([1]; 303.15 K, x1 = 0.3492) of the same compound?
Its mass density is 880.114 ± 0.79 kg/m3.

And the mass density ([1]; 303.15 K, x1 = 0.4027)?
Its mass density is 890.141 ± 0.78 kg/m3.

And the mass density ([1]; 303.15 K, x1 = 0.4543)?
The mass density was 899.435 ± 0.79 kg/m3.

What about the mass density ([1]; 303.15 K, x1 = 0.5504) of the same compound?
Its mass density is 915.759 ± 0.81 kg/m3.

What about the mass density ([1]; 303.15 K, x1 = 0.5525) of the same compound?
The mass density was 916.103 ± 0.81 kg/m3.

What about the mass density ([1]; 303.15 K, x1 = 0.5539) of the same compound?
The mass density was 916.33 ± 0.81 kg/m3.

And the mass density ([1]; 303.15 K, x1 = 0.6)?
Its mass density is 923.723 ± 0.82 kg/m3.

And the mass density ([1]; 303.15 K, x1 = 0.6019)?
The mass density was 924.03 ± 0.82 kg/m3.

What about the mass density ([1]; 303.15 K, x1 = 0.7506) of the same compound?
Its mass density is 946.255 ± 0.89 kg/m3.

And the mass density ([1]; 303.15 K, x1 = 0.8006)?
Its mass density is 953.229 ± 0.92 kg/m3.

What about the mass density ([1]; 303.15 K, x1 = 0.8496) of the same compound?
The mass density was 959.837 ± 0.96 kg/m3.

And the mass density ([1]; 303.15 K, x1 = 0.949)?
The mass density was 972.571 ± 1 kg/m3.

What does the source list for `CCOCCOCCO` [3,6-dioxa-1-octanol]?
mass density ([2]; 293.15 K): 987.876 ± 1.1 kg/m3; speed of sound ([2]; 293.15 K): 1392.3 ± 2 m/s; mass density ([2]; 298.15 K): 983.336 ± 1.1 kg/m3; speed of sound ([2]; 298.15 K): 1374.3 ± 2 m/s; mass density ([2]; 303.15 K): 978.788 ± 1.1 kg/m3; speed of sound ([2]; 303.15 K): 1356.6 ± 2 m/s

With `COCCOCCO` [2-(2-methoxyethoxy)ethanol] as the compound, how does the mass density ([2]; 293.15 K) read?
Its mass density is 1019.81 ± 1.1 kg/m3.

What about the speed of sound ([2]; 293.15 K) of the same compound?
Its speed of sound is 1432.4 ± 2 m/s.

And the mass density ([2]; 298.15 K)?
Its mass density is 1015.41 ± 1.1 kg/m3.

What about the speed of sound ([2]; 298.15 K) of the same compound?
The speed of sound was 1415.2 ± 2 m/s.

And the mass density ([2]; 303.15 K)?
The mass density was 1010.91 ± 1.1 kg/m3.

And the speed of sound ([2]; 303.15 K)?
Its speed of sound is 1397.9 ± 2 m/s.

With `CCCCOCCOCCO` [3,6-dioxa-1-decanol] as the compound, how does the mass density ([2]; 293.15 K) read?
Its mass density is 952.196 ± 1.1 kg/m3.

What about the speed of sound ([2]; 293.15 K) of the same compound?
Its speed of sound is 1374.3 ± 2 m/s.

What about the mass density ([2]; 298.15 K) of the same compound?
Its mass density is 948.103 ± 1.1 kg/m3.

What about the speed of sound ([2]; 298.15 K) of the same compound?
Its speed of sound is 1357 ± 2 m/s.

What about the mass density ([2]; 303.15 K) of the same compound?
The mass density was 943.743 ± 1.1 kg/m3.

And the speed of sound ([2]; 303.15 K)?
The speed of sound was 1340 ± 2 m/s.

Which mass density ([2]; 293.15 K) does the source give for `CCCCO` [butan-1-ol] here?
The mass density was 809.644 ± 0.47 kg/m3.

And the speed of sound ([2]; 293.15 K)?
Its speed of sound is 1256.7 ± 0.54 m/s.

What about the mass density ([2]; 298.15 K) of the same compound?
Its mass density is 805.842 ± 0.47 kg/m3.

And the speed of sound ([2]; 298.15 K)?
Its speed of sound is 1239.2 ± 0.54 m/s.

And the mass density ([2]; 303.15 K)?
The mass density was 801.995 ± 0.47 kg/m3.

What about the speed of sound ([2]; 303.15 K) of the same compound?
Its speed of sound is 1222.7 ± 0.54 m/s.
